Measured values published in the supplement of paper PMC11451515.

Experiments:
Details in all cases: 48 h
NOMO1 [1] = experiment: AUC of viability dose-response curve (% viability x log10 dose units); higher = less sensitive
Summary of the method: (§1)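 Leukemia cells adapted to each medium were seeded in 1536-well plates (500 or 1000 cells/well). They were dosed with library compounds in DMSO at 11 threefold doses, 47 μM to 0.79 nM, for 48 h at 37°C. CellTiter-Glo One luminescence was normalised per plate to DMSO and cell-free wells. Area under the curve was integrated by trapezoidal rule over log10 doses on a four-parameter log-logistic fit; curves exceeding full viability were scaled and curves failing quality control removed.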

SEM cells [2] = experiment: as above
Summary of the method: as §1

P12-Ichikawa [3] = experiment: as above
Summary of the method: as §1

NOMO1 [4] = experiment: cell viability relative to DMSO control; higher = less cytotoxic
Summary of the method: (§2)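 NOMO1 or SEM (500 cells/well) or P12-Ichikawa (1000 cells/well) leukemia cells were adapted for at least four passages in each medium. They were seeded in 1536-well plates (5 μl) and pin-dosed with library compounds in DMSO over an 11-point threefold series, 47 μM to 0.79 nM. CellTiter-Glo One luminescence was read after 48 h at 37°C. Viability is the per-plate percentage relative to DMSO wells, with cell-free wells as background.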

SEM cells [5] = experiment: as above
Summary of the method: as §2

P12-Ichikawa [6] = experiment: as above
Summary of the method: as §2

CCOc1ccc(Nc2nc(-c3c(C)nc4ccccn34)cs2)cc1
AUC of viability dose-response curve
Details	NOMO1 [1]	P12-Ichikawa [3]	SEM cells [2]
HPLM + 10% dialyzed FBS	270	225	232
RPMI 5 mM glucose + 10% FBS	252	232	213
RPMI 5 mM glucose + 10% dialyzed FBS	281	271	263

cell viability [%]
Details	NOMO1 [4]	P12-Ichikawa [6]	SEM cells [5]
HPLM + 10% dialyzed FBS, 0.000781 µM	109	117	98.8
HPLM + 10% dialyzed FBS, 0.00234 µM	118	116	105
HPLM + 10% dialyzed FBS, 0.00702 µM	119	116	111
HPLM + 10% dialyzed FBS, 0.0211 µM	111	103	89.9
HPLM + 10% dialyzed FBS, 0.0632 µM	40	53.8	38.5
HPLM + 10% dialyzed FBS, 0.19 µM	35.7	19.3	22.3
HPLM + 10% dialyzed FBS, 0.569 µM	33.4	26.3	20.4
HPLM + 10% dialyzed FBS, 1.71 µM	38.7	24.1	21.1
HPLM + 10% dialyzed FBS, 5.12 µM	38.8	16.3	20.1
HPLM + 10% dialyzed FBS, 15.4 µM	45.7	14.5	23.5
HPLM + 10% dialyzed FBS, 46.1 µM	40.4	9.9	22.9
RPMI 5 mM glucose + 10% FBS, 0.000781 µM	–	116	114
RPMI 5 mM glucose + 10% FBS, 0.00234 µM	–	121	107
RPMI 5 mM glucose + 10% FBS, 0.00702 µM	–	129	112
RPMI 5 mM glucose + 10% FBS, 0.0211 µM	–	109	94.8
RPMI 5 mM glucose + 10% FBS, 0.0632 µM	–	72.8	46.8
RPMI 5 mM glucose + 10% FBS, 0.19 µM	–	16.7	14.5
RPMI 5 mM glucose + 10% FBS, 0.569 µM	–	19.6	15.6
RPMI 5 mM glucose + 10% FBS, 1.71 µM	–	19.6	13.3
RPMI 5 mM glucose + 10% FBS, 5.12 µM	–	22.3	15.7
RPMI 5 mM glucose + 10% FBS, 15.4 µM	–	17.5	14.3
RPMI 5 mM glucose + 10% FBS, 46.1 µM	–	9.84	10.9
RPMI 5 mM glucose + 10% dialyzed FBS, 0.000781 µM	119	104	116
RPMI 5 mM glucose + 10% dialyzed FBS, 0.00234 µM	117	116	94.7
RPMI 5 mM glucose + 10% dialyzed FBS, 0.00702 µM	128	110	96.5
RPMI 5 mM glucose + 10% dialyzed FBS, 0.0211 µM	120	108	110
RPMI 5 mM glucose + 10% dialyzed FBS, 0.0632 µM	112	94.2	91.1
RPMI 5 mM glucose + 10% dialyzed FBS, 0.19 µM	33.2	28.9	26.8
RPMI 5 mM glucose + 10% dialyzed FBS, 0.569 µM	31.4	29.6	24.3
RPMI 5 mM glucose + 10% dialyzed FBS, 1.71 µM	30.2	30.3	20.7
RPMI 5 mM glucose + 10% dialyzed FBS, 5.12 µM	31.4	27.3	19.1
RPMI 5 mM glucose + 10% dialyzed FBS, 15.4 µM	35.9	28.1	19.7
RPMI 5 mM glucose + 10% dialyzed FBS, 46.1 µM	32.1	14.8	18.8

CC(=O)N1CCN(c2ccc(OC[C@H]3CO[C@](Cn4ccnc4)(c4ccc(Cl)cc4Cl)O3)cc2)CC1
AUC of viability dose-response curve
Details	NOMO1 [1]	P12-Ichikawa [3]	SEM cells [2]
HPLM + 10% dialyzed FBS	437	449	391
RPMI 5 mM glucose + 10% FBS	456	456	340
RPMI 5 mM glucose + 10% dialyzed FBS	470	452	336

cell viability [%]
Details	NOMO1 [4]	P12-Ichikawa [6]	SEM cells [5]
HPLM + 10% dialyzed FBS, 0.000781 µM	126	118	98.3
HPLM + 10% dialyzed FBS, 0.00234 µM	120	120	97.8
HPLM + 10% dialyzed FBS, 0.00702 µM	123	118	104
HPLM + 10% dialyzed FBS, 0.0211 µM	118	112	95.2
HPLM + 10% dialyzed FBS, 0.0632 µM	117	108	107
HPLM + 10% dialyzed FBS, 0.19 µM	102	121	26.4
HPLM + 10% dialyzed FBS, 0.569 µM	129	114	90.9
HPLM + 10% dialyzed FBS, 1.71 µM	103	105	92.8
HPLM + 10% dialyzed FBS, 5.12 µM	98.8	104	21.5
HPLM + 10% dialyzed FBS, 15.4 µM	96.3	94	87.1
HPLM + 10% dialyzed FBS, 46.1 µM	80.4	63.2	86.4
RPMI 5 mM glucose + 10% FBS, 0.000781 µM	113	–	124
RPMI 5 mM glucose + 10% FBS, 0.00234 µM	111	–	136
RPMI 5 mM glucose + 10% FBS, 0.00702 µM	121	–	121
RPMI 5 mM glucose + 10% FBS, 0.0211 µM	114	–	125
RPMI 5 mM glucose + 10% FBS, 0.0632 µM	114	–	134
RPMI 5 mM glucose + 10% FBS, 0.19 µM	107	–	28
RPMI 5 mM glucose + 10% FBS, 0.569 µM	119	–	113
RPMI 5 mM glucose + 10% FBS, 1.71 µM	106	–	104
RPMI 5 mM glucose + 10% FBS, 5.12 µM	97.9	–	14.1
RPMI 5 mM glucose + 10% FBS, 15.4 µM	98.2	–	90.5
RPMI 5 mM glucose + 10% FBS, 46.1 µM	93.6	–	48.5
RPMI 5 mM glucose + 10% dialyzed FBS, 0.000781 µM	111	109	–
RPMI 5 mM glucose + 10% dialyzed FBS, 0.00234 µM	100	107	–
RPMI 5 mM glucose + 10% dialyzed FBS, 0.00702 µM	120	110	–
RPMI 5 mM glucose + 10% dialyzed FBS, 0.0211 µM	127	107	–
RPMI 5 mM glucose + 10% dialyzed FBS, 0.0632 µM	127	113	–
RPMI 5 mM glucose + 10% dialyzed FBS, 0.19 µM	113	106	–
RPMI 5 mM glucose + 10% dialyzed FBS, 0.569 µM	103	101	–
RPMI 5 mM glucose + 10% dialyzed FBS, 1.71 µM	113	101	–
RPMI 5 mM glucose + 10% dialyzed FBS, 5.12 µM	126	94	–
RPMI 5 mM glucose + 10% dialyzed FBS, 15.4 µM	110	96.7	–
RPMI 5 mM glucose + 10% dialyzed FBS, 46.1 µM	89.3	68.2	–
